Test results: patent US20260191192A1, “ANTIMICROBIAL COMPOSITIONS COMPRISING PELARGONIC ACID” (LANXESS Corporation, priority 2023, published 2026)

How the values were obtained:
[1] = system: mixed fungal inoculum: Candida albicans ATCC #10231 and Aspergillus brasiliensis ATCC #16404; experiment: Challenge test (preservative efficacy), mixed fungal inoculum; assay type: cell-based
Protocol: (§1) The preservative activity in representative rinse-off and leave-on formulations was evaluated using a modification of the Personal Care Products Council (PCPC—formerly the Cosmetic, Toiletry and Fragrance Association) protocol (Machtiger, et al. 2001. Determination of the Efficacy of Preservation of Non-Eye Area Water Miscible Cosmetic and Toiletry Formulations: Collaborative Study. J of AOAC International. 84:1, 101-109).
(§2) This evaluation was conducted using a four week, two or three-cycle (i.e., two-cycle for personal care and three-cycle for home care applications) microbial preservative efficacy test (i.e., challenge test) at 25° C. to determine the preservative efficacy of each treatment. Phenoxyethanol, benzyl alcohol and pelargonic acid were tested alone and in various combinations. The pelargonic acid used in the testing was purchased from Sigma-Aldrich. Combinations of phenoxyethanol or benzyl alcohol with benchmark multifunctional booster compounds were also tested for comparison. The preservative and booster ingredients were dosed and mixed thoroughly at room temperature into various formulations, specifically different personal care formulations including a lotion (leave-on, Table 1), a micellar water (rinse-off, Table 2), and a body wash formulation (rinse-off, Table 3) and different home care formulations including a manual dishwashing formulation (Table 4) and a liquid laundry detergent formulation (Table 5). […] Carbomers are a commonly used synthetic rheological modifier in personal care products. The formulation below was made by heating the aqueous (A) and oil (B) phases separately to 75-80° C. The oil phase was then poured into the aqueous phase and mixed by a homogenizer at approximately 45° C. The formed oil-in-water emulsion was cooled to room temperature. Triethanolamine and/or diluted sodium hydroxide was used to adjust the final pH to 6.3 or 6.5 (as indicated in the examples below).
(§3) After dosing, the samples were divided into two separate five gram aliquots. One aliquot was inoculated with 50 μl of a diluted bacterial pool, and the second aliquot was inoculated with 50 μl of a diluted fungal pool as described below. Unpreserved product samples were included as a growth control.
(§4) For personal care products, a mixed bacterial inoculum was prepared using 24-hour cultures of the test bacteria (Table 6) grown in trypticase soy broth (TSB). For home care products, a mixed bacterial inoculum was prepared using 24-hour cultures of the test bacteria either from Table 6 (full pool) or Table 7 (simplified pool) grown in trypticase soy broth (TSB). Details are disclosed in the home care examples below. Equal volumes of the bacterial test strains were combined and diluted one to ten in phosphate buffer to obtain an inoculum of approximately 5×10^7 to 5×10^8 colony forming units per ml (cfu/ml). The test samples were inoculated with 1% of the mixed bacterial inoculum. For both personal care and home care products, a mixed fungal inoculum was prepared using cell suspensions of the yeast Candida albicans ATCC #10231 and the mold Aspergillus brasiliensis ATCC #16404 in phosphate buffer. Equal volumes of the fungal test strains were combined and diluted one to ten with phosphate buffer to obtain an inoculum of approximately 5×10^6 to 5×10^7 cfu/ml. The test samples were inoculated with 1% of the mixed fungal inoculum.
(§5) For personal care products, the samples were subjected to two microbial challenges at time zero and inoculated a second time after seven days. For home care products, the samples were subjected to three microbial challenges at time zero and inoculated a second and third time after seven and fourteen days, respectively. The number of microorganisms added to each sample was determined by a standard Most Probable Number (MPN) determination in Trypticase Soy Broth (TSB) for bacteria and Potato Dextrose Broth (PDB) for fungi. Samples were incubated at 25° C. for the test duration of four weeks.

[2] = system: bacteria (Table 6 pool) and fungi; experiment: Challenge test, overall result (full bacteria pool and fungi); assay type: cell-based
Protocol: as §1, §2, §3, §4, §5

[3] = ZenBio Cupric Ion Chelating (CIC) Assay; assay type: physicochemical; conditions: calculated from a EDTA calibration curve, Pelargonic Acid at 775 μM
Protocol: The chelation property of the pelargonic acid was measured by using the ZenBio Cupric Ion Chelating (CIC) Assay (Cat #AOX-16). The assay measured the capacity of the pelargonic acid to chelate free cupric ions in solution, thereby inhibiting Cu(II) binding to pyrocatechol violet (PV) for generating a highly colored complex. The absorbance of the Cupric-PV complex was measured at a wavelength of 632 nm. The cupric ion chelating activity was determined as the percent of total PV over the Cu(II) binding. Ethylenediaminetetraacetic acid (EDTA), a well-known chelating agent, was used as a positive control. A series of EDTA with 7 different concentrations from 0 to 1000 μM were prepared and their corresponding absorbance measured and used as the calibration curve (Cupric ion chelating (%) vs. EDTA concentration). Percent cupric ion chelating was determined following the following calculations and Equation 1. The background absorbance value by averaging the absorbance values of the three background wells (no CuSO4 or sample). The average background absorbance was then subtracted from all the sample absorbance values. The maximal absorbance value (Absmax) was determined by averaging the absorbance values of the three wells containing CuSO4, PV and assay buffer. Abstest in Equation 1 is the absorbance of the test sample.
The calibration curve (Cupric ion chelating (%) vs. EDTA concentration) was fit by using a polynomial curve after log 10 transforming the concentrations (R2>0.98).

[4] = system: mixed bacterial inoculum (Table 6); experiment: Challenge test (preservative efficacy), mixed bacterial inoculum, full pool (Table 6); assay type: cell-based
Protocol: as §1, §2, §3, §4, §5

[5] = system: bacteria (Table 7 pool) and fungi; experiment: Challenge test, overall result (simplified bacteria pool and fungi); assay type: cell-based; conditions: dosed 0.02 wt %
Protocol: as §1, §2, §3, §4, §5

[6] = system: mixed bacterial inoculum for home care (Table 7); experiment: Challenge test (preservative efficacy), mixed bacterial inoculum, simplified pool (Table 7); assay type: cell-based, Pseudomonas aeruginosa, Staphylococcus aureus; conditions: dosed 0.02 wt %
Protocol: as §1, §2, §3, §4, §5

[7] = body wash, pH 6.5, Example 1E, dosed 0.5 wt %
[8] = micellar water, pH 6.0, Example 1B, dosed 0.5 wt %
[9] = micellar water, pH 6.0, bacteria inoculation ~10^7 cfu/ml, Example 1B, dosed 0.5 wt %
[10] = liquid laundry detergent, pH 7.5, Example 1H, dosed 0.02 wt %
[11] = lotion with carbomer, pH 6.5, Example 1I, dosed 0.016 wt %
[12] = lotion with carbomer, pH 6.3, Example 1A, dosed 0.4 wt %
[13] = micellar water, pH 6.0, Example 1B, dosed 0.3 wt %
[14] = micellar water, pH 6.0, Example 1C, dosed 0.3 wt %

With `CCCCC(CC)COCC(O)CO` (stereo not shown) [2-ethyl-hexyl glycerin (EHG), 2-ethyl-hexyl glycerin] the “Fungi growth rating Result” value [1, 7] was “Fail (growth rating score caused by fungi of more than 2 at days 21-28 of the testing period)”, the “Fungi growth rating Result” value [1, 8] was “Fail (growth rating score caused by fungi of more than 2 at days 21-28 of the testing period)” and the “Overall Result” value [2, 7] was “Fail”. The “Overall Result” value [2, 8] was “Fail”, the “Calculated EDTA equivalent” value ([3]; listed as Ethylhexylglycerin) was roughly 0 µM and the “Calculated EDTA equivalent” value ([3]; listed as ethylhexylglycerin) was ~ 0 μM. For the same compound, the “Bacteria growth rating Result” value [4, 7] was “Fail (growth rating score caused by bacteria of 2 or more at days 21-28 of the testing period)” and the “Bacteria growth rating Result” value [4, 9] was “Fail (growth rating score caused by bacteria of 2 or more at days 21-28 of the testing period)”.

With `CCCCC(O)CO` (stereo not shown) [1,2 hexanediol] the “Fungi growth rating Result” value [1, 8] was “Fail (growth rating score caused by fungi of more than 2 at days 21-28 of the testing period)”, the “Overall Result” value [2, 8] was “Fail” and the “Bacteria growth rating Result” value [4, 9] was “Pass (growth rating score caused by bacteria of 1 or less at days 21-28 of the testing period)”.

In the case of `CCCCCCCC(=O)NO` [Caprylhydroxamic acid (CHA), Caprylhydroxamic acid], the “Fungi growth rating Result” value ([1]; liquid laundry detergent, pH 7.5, Example 1G, dosed 0.02 wt %) is reported as “Fail (growth rating score caused by fungi of more than 2 at days 21-28 of the testing period)”, the “Fungi growth rating Result” value [1, 10] is reported as “Fail (growth rating score caused by fungi of more than 2 at days 21-28 of the testing period)” and the “Fungi growth rating Result” value [1, 11] is reported as “Fail (growth rating score caused by fungi of more than 2 at days 21-28 of the testing period)”. The “Fungi growth rating Result” value ([1]; manual dishwashing formulation, pH 5.5, Example 1F, dosed 0.02 wt %) was “Fail (growth rating score caused by fungi of more than 2 at days 21-28 of the testing period)”, the “Overall Result” value ([5]; liquid laundry detergent, pH 7.5, Example 1G) was “Fail” and the “Overall Result” value ([5]; manual dishwashing formulation, pH 5.5, Example 1F) was “Fail”. The “Overall Result” value [2, 10] was “Fail”, the “Overall Result” value [2, 11] was “Fail” and the “Bacteria growth rating Result” value ([6]; liquid laundry detergent, pH 7.5, simplified bacteria pool, Example 1G) was “Fail (growth rating score caused by bacteria of 2 or more at days 21-28 of the testing period)”. The “Bacteria growth rating Result” value ([6]; manual dishwashing formulation, pH 5.5, simplified bacteria pool, Example 1F) was “Fail (growth rating score caused by bacteria of 2 or more at days 21-28 of the testing period)”, the “Bacteria growth rating Result” value ([4]; liquid laundry detergent, pH 7.5, full bacteria pool, Example 1H, dosed 0.02 wt %) was “Fail (growth rating score caused by bacteria of 2 or more at days 21-28 of the testing period)” and the “Bacteria growth rating Result” value [4, 11] was “Fail (growth rating score caused by bacteria of 2 or more at days 21-28 of the testing period)”.

For `OCc1ccccc1` [Benzyl Alcohol (BA), benzyl alcohol], the “Fungi growth rating Result” value [1, 7] was “Pass (growth rating score caused by fungi of 2 or less at days 21-28 of the testing period)”, the “Fungi growth rating Result” value [1, 12] was “Fail (growth rating score caused by fungi of more than 2 at days 21-28 of the testing period)” and the “Fungi growth rating Result” value [1, 13] was “Fail (growth rating score caused by fungi of more than 2 at days 21-28 of the testing period)”. The “Fungi growth rating Result” value [1, 14] was “Fail (growth rating score caused by fungi of more than 2 at days 21-28 of the testing period)”, the “Overall Result” value [2, 7] was “Fail” and the “Overall Result” value [2, 12] was “Fail”. The “Overall Result” value [2, 13] was “Fail”, the “Overall Result” value [2, 14] was “Fail” and the “Bacteria growth rating Result” value [4, 7] was “Fail (growth rating score caused by bacteria of 2 or more at days 21-28 of the testing period)”. The “Bacteria growth rating Result” value [4, 12] was “Fail (growth rating score caused by bacteria of 2 or more at days 21-28 of the testing period)”, the “Bacteria growth rating Result” value ([4]; lotion with carbomer, pH 6.3, Example 1D, dosed 0.4 wt %) was “Fail (growth rating score caused by bacteria of 2 or more at days 21-28 of the testing period)” and the “Bacteria growth rating Result” value ([4]; lotion with carbomer, pH 6.3, Example 1D, dosed 0.8 wt %) was “Fail (growth rating score caused by bacteria of 2 or more at days 21-28 of the testing period)”. The “Bacteria growth rating Result” value ([4]; micellar water, pH 6.0, bacteria inoculation ~10^7 cfu/ml, Example 1B, dosed 0.3 wt %) was “Pass (growth rating score caused by bacteria of 1 or less at days 21-28 of the testing period)” and the “Bacteria growth rating Result” value ([4]; micellar water, pH 6.0, bacteria inoculation ~10^8 cfu/ml, Example 1C, dosed 0.3 wt %) was “Fail (growth rating score caused by bacteria of 2 or more at days 21-28 of the testing period)”.
